According to patent publication EP0443560A2, “HIV protease inhibitors” (priority 1990, dated 1991):

What was measured:
HIV protease = target: T1, HIV protease (Human immunodeficiency virus type 1 group M subtype B, UniProt P04585); assay: Recombinant HIV Protease HPLC Assay; assay type: biochemical
T1 construct: HIV protease was expressed in E. coli [construct pBRT1 prt⁺; made in house; host or cells: E. coli
Excerpt: The procedure is based on the capacity of the test compound to inhibit enzymatic cleavage by HIV protease of a decapeptide (the substrate) having an amino acid sequence which includes a known HIV protease cleavage site of a HIV polyprotein; see H.G. Krausslich et al., Proc. Natl. Acad. Sci. USA, 86, 807 (1989). Details of this assay together with the results obtained for exemplified compounds of formula 1 are described in the examples hereinafter.
Recombinant HIV Protease HPLC Assay:
HIV protease was expressed in E. coli [construct pBRT1 prt⁺, see W.G. Farmerie et al., Science, 236, 305 (1987)], according to the following protocol: Unless stated otherwise, all solutions are aqueous solutions.
E. coli cells containing the pBRT1 prt⁺ plasmid were used to inoculate a seed culture media composed of Luria-Bertani Broth containing 100µg/mL of ampicillin. Flasks were incubated at 37° under agitation for 17 h. Production flasks containing sterile M9 broth, supplemented with 100µg/ml of ampicillin, were inoculated at a level of 1% (v/v) using the seed culture described above. Total volume in each production flask was 500 mL in a 2 L Erlenmeyer flask. Flasks were incubated at 37° under agitation until a cell concentration corresponding to an optical density (λ = […]) of 0.6 was reached (no dilution). This time span was routinely 3-4 h. Flasks were then supplemented with 5mM isopropylthiogalactoside (IPTG, Research Organics, Cleveland, Ohio, USA) and incubation was continued until the cell concentration reached an optical density of 0.2 at 16-fold dilution. Flasks were then supplemented with 1mM phenylmethylsulfonyl fluoride (PMSF) and rapidly chilled to 4°. The bacterial cells were recovered by centrifugation at 4°. The wet pellet was stored at -70°.
All steps below were performed at 4° unless otherwise indicated. Thawed cells were mixed with buffer A [50 mM tris(hydroxymethyl)[…] HCl(Tris-HCl, pH 7.4); 0.6 mM ethylenediaminetetraacetic acid (EDTA); 0.375 M NaCl, 0.2% Nonidet P-40 ® (BDH Chemicals Ltd., Poole, UK); 1mM PMSF], at a ratio of one part cells to nine parts buffer A. Diatomaceous earth (Celite 545 ® , John Manville, Lompoc, CA, USA) was added at a ratio of two parts to one part of wet cell weight. The resulting slurry was homogenized at high speed (ca. 20,000 rpm) on a Waring ® industrial blender for 8 x 15 sec. pulses. Cell debris/Celite ® was collected by centrifugation and the resulting pellet was extracted with 4.5 parts of buffer A to one part wet solids using the homogenization procedure described above. Supernatants from both homogenization steps were combined and soluble protein was precipitated by the addition of solid (NH₄)₂SO₄ to yield a final concentration of 75% saturation. This mixture was agitated for 60 min and the precipitate was recovered by centrifugation. The resulting pellet was suspended in buffer B [50mM Tris-HCl, pH 8; 30 mM NaCl; 1 mM DL-dithiothreitol(DTT); 1 mM EDTA; 1 mM PMSF; 10% glycerol], and dialyzed for 18h against the same buffer.
An aliquot of the dialyzed extract containing 150 mg of the protein was loaded onto a Sephadex A25 ® anion exchange column. (Pharmacia, Uppsala, Sweden) with bed dimensions of 70 cm length and 2.5 cm diameter. The sample was eluted isocratically with buffer B at a linear flow rate of 10 cm/h. Fractions containing HIV protease activity (see below for assay description) were combined, and soluble protein was precipitated by the addition of saturated aqueous (NH₄)₂SO₄ to yield a total (NH₄)₂SO₄ concentration of 85% saturation. Precipitated protein was removed by centrifugation and the resulting pellet was dissolved in buffer C [50 mM 2-(4-morpholino)ethanesulfonic acid (MES), pH 5.5; 150 mM NaCl; 1 mM DTT; 1 mM EDTA; 10% glycerol). This preparation was dialyzed for 18h against buffer C, and then frozen at -70°. All crude extracts were purified by chromatography in aliquots containing 150 mg of protein in the same manner as described above. […]

H9/HTLV-IIIB = assay: Inhibition of syncytia formation in HIV-infected C8166 cells (antiviral screen adapted from plaque assay of Harada et al.); assay type: cell-based; details: Human immunodeficiency virus 1, IIIB, 72 h
Excerpt: Typical of such procedures are those described by S. Harada and N. Yamamoto, Jpn. J. Cancer Res. (Gann), 76, 432 (1985), and S. Harada et al., Science, 229, 563 (1985). An assay based on the latter procedures is described in the examples hereinafter.
The following protocol, used for screening antiviral effects of the compounds of formula 1 , is adapted from a plaque assay utilizing HTLV-I transformed cells which was developed by Harada et al., supra. HTLV-I transformed cells are used in these assays because of the rapidity with which HIV will replicate in these cells. • 1. The test compound is dissolved in dimethylsulfoxide to a concentration of 5 mg/mL. The resultant solution can be stored at 4° until used. • 2. The resultant solution is diluted in RPMI 1640 (Gibco Laboratories, St. Lawrence, MA, USA) to four times (4x) the final concentration which is to be tested. Once diluted in RPMI 1640, the solution is used in the cell culture assay within 4 h. • 3. The 4x solution (50µL) is added to triplicate wells of a 96 well flat bottomed microtiter plate. […] Infectious titer of virus stocks are as previously determined by end point dilution on C8166 cells. […] Plates are then removed and centers of syncytia are counted in each well by low power phase contrast light microscopy. […] Percent inhibition of syncytia formation is calculated by the formula: [formula]

Q: How did the IC50 (HIV protease) turn out when `CC(C)(C)OC(=O)NC(CC1CCCCC1)C(O)CC(=O)NC(CCC(=O)O)C(=O)NCCCc1ccccc1` (stereo not shown) [Example 4, Boc-ACHPA-Glu-NHCH₂CH₂CH₂Ph] was run?
A: Its IC50 is 7 nM.

Q: What about the inhibition at 20 µg/mL (H9/HTLV-IIIB) of the same compound?
A: Its inhibition at 20 µg/mL is 96%.

Q: For `CC(C)(C)OC(=O)NC(CNC(CC1CC1)C(=O)NC(CCC(=O)O)C(=O)NCCCc1ccccc1)Cc1ccccc1` (stereo not drawn) [Example 2, Boc-PheΨ[CH₂NH]Cpa-Glu-NHCH₂CH₂CH₂Ph], which IC50 (HIV protease) is on record?
A: Its IC50 is 13 nM.

Q: And the inhibition at 20 µg/mL (H9/HTLV-IIIB)?
A: The inhibition at 20 µg/mL was 54%.
